{"source": "patent US6124322A", "about": "“Intravenous form of thalidomide for treating immunological diseases” (Gruenenthal GmbH, priority 1997, dated 2000)", "key": {"[1]": {"assay": "hydrolysis in aqueous solution", "assay_type": "physicochemical", "details": "aqueous solutions, pH not restricted", "from_the_text": "The enantiomers of thalidomide have a solubility in water which is higher by a factor of 6 than that of the racemate."}, "[2]": {"details": "Arch. Pharm. 321, 371 (1988); cited from earlier work"}, "aphthous stomatitis": {"test_system": "aphthous stomatitis", "details": "treatment of aphthous stomatitis; cited from earlier work"}, "[3]": {"test_system": "cutaneous lupus erythematosus, pyoderma gangrenosum, orogenital ulcers with morbus Behcet, ulcerations in HIV-infected patients", "details": "cited from earlier work"}}, "data": [{"smiles": "O=C1CCC(N2C(=O)c3ccccc3C2=O)C(=O)N1", "note": "(racemic) [thalidomide]", "values": [{"measurement": "hydrolysis in aqueous solution", "setting": "[1]", "value": "tendency of thalidomide to undergo spontaneous hydrolysis"}, {"measurement": "solubility in water", "setting": "[2]", "value": 12, "unit": "µg/mL"}, {"measurement": "efficacy in aphthous stomatitis versus classical immunosuppressants", "setting": "aphthous stomatitis", "value": "superior to classical immunosuppressants"}, {"measurement": "efficacy without general immunosuppression", "setting": "[3]", "value": "good efficacy without resulting in a general immunosuppression"}]}]}
